Experimental data published in patent publication US20260324639A1, “MICROBIOCIDAL PYRAZOLE DERIVATIVES” (SYNGENTA CROP PROTECTION AG, priority 2022, published 2026).

Tests used:
[1] = tested on: Monographella nivalis; experiment: Monographella nivalis (Microdochium nivale)/liquid culture (foot rot cereals); format: cell-based; conditions: liquid culture, PDB, 24° C., growth inhibition photometric 4-5 days after application, read-out: control of Monographella nivalis compared to untreated control
Protocol: (§1) Conidia of the fungus from cryogenic storage are directly mixed into nutrient broth (PDB potato dextrose broth). After placing a (DMSO) solution of test compound into a microtiter plate (96-well format), the nutrient broth containing the fungal spores is added. The test plates are incubated at 24° C. and the inhibition of growth is determined photometrically 4-5 days after application.

[2] = tested on: Mycosphaerella graminicola; experiment: Mycosphaerella graminicola (Septoria tritici)/liquid culture (Septoria blotch); format: cell-based; conditions: Zymoseptoria tritici, liquid culture, PDB, 24° C., growth inhibition photometric 4-5 days after application, read-out: control of Mycosphaerella graminicola compared to untreated control
Protocol: as §1

[3] = tested on: Mycosphaerella arachidis; experiment: Mycosphaerella arachidis (Cercospora arachidicola)/liquid culture (early leaf spot); format: cell-based; conditions: liquid culture, PDB, 24° C., growth inhibition photometric 4-5 days after application, read-out: control of Mycosphaerella arachidis compared to untreated control
Protocol: as §1

[4] = tested on: Pyrenophora teres; experiment: Pyrenophora teres/barley/leaf disc preventative (net blotch); format: in vivo; conditions: 200 ppm, barley leaf segments cv. Hasso, inoculated 2 days after application, assessed 5-7 days after application
Protocol: Barley leaf segments cv. Hasso are placed on agar in a multiwell plate (24-well format) and sprayed with the formulated test compound diluted in water. The leaf segments are inoculated with a spore suspension of the fungus 2 days after application. The inoculated leaf segments are incubated at 20° C. and 65% rh under a light regime of 12 h light/12 h darkness in a climate cabinet and the activity of a compound is assessed as disease control compared to untreated when an appropriate level of disease damage appears in untreated check leaf segments (5-7 days after application).

[5] = tested on: Glomerella lagenarium; experiment: Glomerella lagenarium (Colletotrichum lagenarium)/liquid culture (anthracnose); format: cell-based; conditions: Colletotrichum orbiculare, liquid culture, PDB, 24° C., growth inhibition photometric 3-4 days after application, read-out: control of Glomerella lagenarium compared to untreated control
Protocol: as §1, with “measured” for “determined”, “3-4” for “4-5”

[6] = tested on: Botryotinia fuckeliana; experiment: Botryotinia fuckeliana (Botrytis cinerea)/liquid culture (gray mould); format: cell-based; conditions: liquid culture, Vogels broth, 24° C., growth inhibition photometric 3-4 days after application, read-out: control of Botryotinia fuckeliana compared to untreated control
Protocol: as §1, with “(Vogels” for “(PDB potato dextrose”, “3-4” for “4-5”

[7] = tested on: Phaeosphaeria nodorum; experiment: Phaeosphaeria nodorum (Septoria nodorum)/wheat/leaf disc preventative (glume blotch); format: in vivo; conditions: 200 ppm, wheat leaf segments cv. Kanzler, inoculated 2 days after application, assessed 5-7 days after application
Protocol: Wheat leaf segments cv. Kanzler are placed on agar in a multiwell plate (24-well format) and sprayed with the formulated test compound diluted in water. The leaf disks are inoculated with a spore suspension of the fungus 2 days after application. The inoculated test leaf disks are incubated at 20° C. and 75% rh under a light regime of 12 h light/12 h darkness in a climate cabinet and the activity of a compound is assessed as percent disease control compared to untreated when an appropriate level of disease damage appears in untreated check leaf disks (5-7 days after application).

[8] = tested on: Alternaria solani; experiment: Alternaria solani/tomato/leaf disc (early blight); format: in vivo; conditions: 200 ppm; tomato leaf disks cv. Baby; inoculated 2 days after application; assessed 5-7 days after application
Protocol: Tomato leaf disks cv. Baby are placed on agar in multiwell plates (24-well format) and sprayed with the formulated test compound diluted in water. The leaf disks are inoculated with a spore suspension of the fungus 2 days after application. The inoculated leaf disks are incubated at 23° C./21° C. (day/night) and 80% rh under a light regime of 12/12 h (light/dark) in a climate cabinet and the activity of a compound is assessed as percent disease control compared to untreated when an appropriate level of disease damage appears on untreated check disk leaf disks (5-7 days after application).

| SMILES | inhibition of growth at 20 ppm [1] [%] | inhibition of growth at 20 ppm [2] [%] | inhibition of growth at 20 ppm [3] [%] | control of Pyrenophora teres compared to untreated control [4] | inhibition of growth at 20 ppm [5] [%] | inhibition of growth at 20 ppm [6] [%] | control of Phaeosphaeria nodorum compared to untreated control [7] | control of Alternaria solani compared to untreated control [8] |
| --- | --- | --- | --- | --- | --- | --- | --- | --- |
| COc1ccc2c(c1)C(c1cnn(C)c1)CN(C(=O)c1nnn(-c3ccc(F)cc3F)n1)C2C (racemic) [Compound P-34, [2-(2,4-difluorophenyl)tetrazol-5-yl]-[6-methoxy-1-methyl-4-(1-methylpyrazol-4-yl)-3,4-dihydro-1H-isoquinolin-2-yl]methanone] | ≥ 80 | ≥ 80 | ≥ 80 | – | – | – | – | – |
| Cc1c([C@H]2CN(C(=O)c3cnn(-c4ccc(F)cc4F)n3)[C@@H](C)c3ccccc32)cnn1C (racemic) [Compound P-40, [2-(2,4-difluorophenyl)triazol-4-yl]-[rac-(1S,4S)-4-(1,5-dimethylpyrazol-4-yl)-1-methyl-3,4-dihydro-1H-isoquinolin-2-yl]methanone] | – | ≥ 80 | – | at least 80% | – | – | – | – |
| COc1ccc2c(c1)[C@H](c1cnn(C)c1)CN(C(=O)c1nnn(-c3ccccc3)n1)[C@@H]2C (single isomer, unassigned) [Compound P-36] | ≥ 80 | ≥ 80 | ≥ 80 | – | – | – | – | – |
| COc1ccc2c(c1)[C@@H](c1cnn(C)c1)CN(C(=O)c1nnn(-c3ccc(F)cc3F)n1)[C@H]2C (single isomer, unassigned) [Compound P-38] | ≥ 80 | ≥ 80 | ≥ 80 | – | – | – | – | – |
| Cc1nn(C)c(C)c1C1CN(C(=O)c2cn(-c3ccccc3)nn2)Cc2ccccc21 (stereo not shown) [Compound P-7, (1-phenyltriazol-4-yl)-[4-(1,3,5-trimethylpyrazol-4-yl)-3,4-dihydro-1H-isoquinolin-2-yl]methanone] | – | ≥ 80 | ≥ 80 | – | – | – | – | – |
| Cn1cc(C2CN(C(=O)c3cn(-c4ccc(F)cc4F)nn3)Cc3ccccc32)cn1 (stereo not shown) [Compound P-8, [1-(2,4-difluorophenyl)triazol-4-yl]-[4-(1-methylpyrazol-4-yl)-3,4-dihydro-1H-isoquinolin-2-yl]methanone] | – | – | – | at least 80% | – | – | – | – |
| Cn1cc(C2CN(C(=O)c3cn(-c4ccccc4)nn3)Cc3ccccc32)cn1 (stereo not shown) [Compound P-11, [4-(1-methylpyrazol-4-yl)-3,4-dihydro-1H-isoquinolin-2-yl]-(1-phenyltriazol-4-yl)methanone] | – | ≥ 80 | – | – | ≥ 80 | – | – | – |
| Cn1cc(C2CN(C(=O)c3nnn(-c4ccccc4)n3)Cc3ccccc32)cn1 (stereo not shown) [Compound P-14, [4-(1-methylpyrazol-4-yl)-3,4-dihydro-1H-isoquinolin-2-yl]-(2-phenyltetrazol-5-yl)methanone] | ≥ 80 | ≥ 80 | ≥ 80 | at least 80% | ≥ 80 | ≥ 80 | at least 80% | at least 80% |
| Cn1cc(C2CN(C(=O)c3cnn(-c4ccc(F)cc4)n3)Cc3ccccc32)cn1 (stereo not shown) [Compound P-18, [2-(4-fluorophenyl)triazol-4-yl]-[4-(1-methylpyrazol-4-yl)-3,4-dihydro-1H-isoquinolin-2-yl]methanone] | ≥ 80 | ≥ 80 | – | – | – | – | – | – |
| Cc1c(C2CN(C(=O)c3nnn(-c4ccc(F)cc4F)n3)Cc3ccccc32)cnn1C (stereo not shown) [Compound P-31, [2-(2,4-difluorophenyl)tetrazol-5-yl]-[4-(1,5-dimethylpyrazol-4-yl)-3,4-dihydro-1H-isoquinolin-2-yl]methanone] | ≥ 80 | ≥ 80 | ≥ 80 | at least 80% | ≥ 80 | ≥ 80 | at least 80% | at least 80% |
| Cn1cc(C2(C)CN(C(=O)c3nnn(-c4ccc(F)cc4F)n3)Cc3ccccc32)cn1 (stereo not shown) [Compound P-32, [2-(2,4-difluorophenyl)tetrazol-5-yl]-[4-methyl-4-(1-methylpyrazol-4-yl)-1,3-dihydroisoquinolin-2-yl]methanone] | – | ≥ 80 | – | – | – | – | – | – |
| COc1ccc2c(c1)C(c1cnn(C)c1)CN(C(=O)c1nnn(-c3ccccc3)n1)C2C (stereo not shown) [Compound P-35, [6-methoxy-1-methyl-4-(1-methylpyrazol-4-yl)-3,4-dihydro-1H-isoquinolin-2-yl]-(2-phenyltetrazol-5-yl)methanone] | ≥ 80 | ≥ 80 | ≥ 80 | at least 80% | ≥ 80 | ≥ 80 | – | – |
| Cc1c([C@@H]2CN(C(=O)c3cn(-c4ncc(F)cc4F)nn3)[C@H](C)c3ccccc32)cnn1C [Compound P-44, [1-(3,5-difluoro-2-pyridyl)triazol-4-yl]-[(1R,4R)-4-(1,5-dimethylpyrazol-4-yl)-1-methyl-3,4-dihydro-1H-isoquinolin-2-yl]methanone] | – | ≥ 80 | ≥ 80 | – | ≥ 80 | – | – | – |
| C[C@H]1c2ccccc2[C@@H](c2cnn(C)c2Cl)CN1C(=O)c1cnn(-c2ccc(F)cc2F)n1 [Compound P-45, [(1S,4S)-4-(5-chloro-1-methyl-pyrazol-4-yl)-1-methyl-3,4-dihydro-1H-isoquinolin-2-yl]-[2-(2,4-difluorophenyl)triazol-4-yl]methanone] | – | ≥ 80 | – | – | – | – | – | – |
| C[C@@H]1c2ccccc2[C@H](c2cnn(C)c2Cl)CN1C(=O)c1cn(-c2ccc(F)cc2F)nn1 [Compound P-47, [(1R,4R)-4-(5-chloro-1-methyl-pyrazol-4-yl)-1-methyl-3,4-dihydro-1H-isoquinolin-2-yl]-[1-(2,4-difluorophenyl)triazol-4-yl]methanone] | – | ≥ 80 | ≥ 80 | – | – | – | – | – |
| C[C@@H]1c2ccccc2[C@H](c2cnn(C)c2Cl)CN1C(=O)c1nnn(-c2ccc(F)cc2F)n1 [Compound P-50, [(1R,4R)-4-(5-chloro-1-methyl-pyrazol-4-yl)-1-methyl-3,4-dihydro-1H-isoquinolin-2-yl]-[2-(2,4-difluorophenyl)tetrazol-5-yl]methanone] | – | ≥ 80 | – | – | – | – | – | – |
| Cc1c(C2CN(C(=O)c3cn(-c4ncc(F)cc4F)nn3)Cc3ccccc32)cnn1C (stereo not shown) [Compound P-57, [1-(3,5-difluoro-2-pyridyl)triazol-4-yl]-[4-(1,5-dimethylpyrazol-4-yl)-3,4-dihydro-1H-isoquinolin-2-yl]methanone] | – | ≥ 80 | – | at least 80% | – | – | at least 80% | at least 80% |
